The source of these data is US9328106B2, “Cyclic ether pyrazol-4-yl-heterocyclyl-carboxamide compounds and methods of use” (Genentech, Inc., priority 2012, dated 2016).

The assay has as its target PIM1 (Homo sapiens (Human), UniProt P11309). Briefly: biochemical. It counts as biochemical.
Where [1] appears, read: 20 pM PIM1, 1 μM FAM-peptide, 10 μM ATP, 90 minutes at room temperature, read-out: PIM1 LC3K (KI).

SMILES strings stand for the structures. Where two headings read alike, the source gives them in different places.

Chain of PIM1 (P11309 whole entry): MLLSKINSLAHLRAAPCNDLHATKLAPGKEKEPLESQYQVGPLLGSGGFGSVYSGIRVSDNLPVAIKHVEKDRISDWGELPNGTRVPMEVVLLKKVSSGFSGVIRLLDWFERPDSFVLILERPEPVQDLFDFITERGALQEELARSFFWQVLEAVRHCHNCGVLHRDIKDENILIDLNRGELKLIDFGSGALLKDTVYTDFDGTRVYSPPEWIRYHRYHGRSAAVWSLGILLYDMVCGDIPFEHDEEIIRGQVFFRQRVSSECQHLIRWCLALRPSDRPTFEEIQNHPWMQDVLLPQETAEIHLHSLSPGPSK

In general, Ki refers to a measure of affinity in units of concentration, obtained from inhibition or displacement. Regarding `CO[C@@H]1C[C@@H](c2c(NC(=O)c3nc(-c4c(F)cccc4F)sc3N)cnn2C)OCC[C@H]1N` [Example 136, 5-amino-N-(5-((2S,4R,5R)-5-amino-4-methoxyoxepan-2-yl)-1-methyl-1H-pyrazol-4-yl)-2-(2,6-difluorophenyl)thiazole-4-carboxamide], the inhibition constant (Ki) under setting [1] was 0.057 nM.
The same measure, in the same setting: then `COC1(c2cc(F)c(-c3nc(C(=O)Nc4cnn(C)c4[C@@H]4CC[C@@H](N)[C@H](F)CO4)ccc3F)c(F)c2)COC1` [Example 202, N-(5-((2S,5R,6S)-5-amino-6-fluorooxepan-2-yl)-1-methyl-1H-pyrazol-4-yl)-6-(2,6-difluoro-4-(3-methoxyoxetan-3-yl)phenyl)-5-fluoropicolinamide], with 0.056 nM; and `Cc1nn(C)cc1-c1nc(C(=O)Nc2cnn(C)c2[C@@H]2CC[C@@H](N)[C@@H](F)CO2)c(N)s1` [Example 254, 5-amino-N-(5-((2S,5R,6R)-5-amino-6-fluorooxepan-2-yl)-1-methyl-1H-pyrazol-4-yl)-2-(1,3-dimethyl-1H-pyrazol-4-yl)thiazole-4-carboxamide], with 0.026 nM.
Turning to `C[C@@H]1CC(O)CC[C@H](c2c(NC(=O)c3nc(-c4c(F)cccc4F)sc3N)cnn2C)O1` (stereo partly drawn) [Example 108, 5-amino-2-(2,6-difluorophenyl)-N-(5-((2R,7R)-5-hydroxy-7-methyloxepan-2-yl)-1-methyl-1H-pyrazol-4-yl)thiazole-4-carboxamide], the inhibition constant Ki under setting [1] was found to be 0.049 nM.
For the compound `Cn1ncc(NC(=O)c2nc(-c3c(F)cccc3F)sc2N)c1C1CCC(N)COC1` (centres unmarked) [Example 147, 5-amino-N-[5-(6-aminooxepan-3-yl)-1-methyl-pyrazol-4-yl]-2-(2,6-difluorophenyl)thiazole-4-carboxamide], the Ki under setting [1] worked out at 0.141 nM.
Still for that read-out and setting: then `Cn1ncc(NC(=O)c2csc(-c3cccc4cnn(C)c34)n2)c1[C@@H]1CC[C@@H](N)[C@H](F)CO1` [Example 403, N-[5-[(2S,5R,6S)-5-amino-6-fluoro-oxepan-2-yl]-1-methyl-pyrazol-4-yl]-2-(1-methylindazol-7-yl)thiazole-4-carboxamide], with 5.91 nM; and `COc1ccc(-c2nc(C(=O)Nc3cnn(C)c3[C@@H]3CC[C@@H](N)[C@H](F)CO3)ccc2F)c(F)c1` [Example 226, N-(5-((2S,5R,6S)-5-amino-6-fluorooxepan-2-yl)-1-methyl-1H-pyrazol-4-yl)-5-fluoro-6-(2-fluoro-4-methoxyphenyl)picolinamide], with 0.036 nM; and `Cn1ncc(NC(=O)c2nc(-c3ccncc3F)sc2N)c1[C@@]12CC[C@@H](N)[C@@H](CC1)O2` (stereo in doubt) [Example 161, 5-Amino-N-[5-[2-amino-8-oxabicyclo[3.2.1]octan-5-yl]-1-methyl-pyrazol-4-yl]-2-(3-fluoro-4-pyridyl)thiazole-4-carboxamide], with 0.013 nM.
On the same count and under the same terms, the result for `COc1cc(F)c(-c2nc(C(=O)Nc3cnn(C)c3[C@@H]3CC[C@@H](N)[C@H](F)CO3)cs2)c(F)c1` [Example 296, N-(5-((2S,5R,6S)-5-amino-6-fluorooxepan-2-yl)-1-methyl-1H-pyrazol-4-yl)-2-(2,6-difluoro-4-methoxyphenyl)thiazole-4-carboxamide] reads 0.031 nM; that for `Cn1ncc(NC(=O)c2csc(-c3cccc4c3cnn4C)n2)c1[C@@H]1CC[C@@H](N)[C@H](F)CO1` [Example 402, N-[5-[(2S,5R,6S)-5-amino-6-fluoro-oxepan-2-yl]-1-methyl-pyrazol-4-yl]-2-(1-methylindazol-4-yl)thiazole-4-carboxamide], 0.117 nM.
On the same count and under the same terms, the result for `C[C@@H]1CC(N)CC[C@H](c2c(NC(=O)c3nc(-c4c(F)cccc4F)sc3N)cnn2C)O1` (stereo partly drawn) [Example 113, 5-amino-N-(5-((2R,7R)-5-amino-7-methyloxepan-2-yl)-1-methyl-1H-pyrazol-4-yl)-2-(2,6-difluorophenyl)thiazole-4-carboxamide] reads 0.019 nM.
Consider `C[C@@H]1O[C@H](c2c(NC(=O)c3nc(-c4c(F)cccc4F)sc3N)cnn2C)CC(F)(F)[C@]1(C)N` [Example 185, 5-Amino-N-(5-((2S,5R,6S)-5-amino-4,4-difluoro-5,6-dimethyltetrahydro-2H-pyran-2-yl)-1-methyl-1H-pyrazol-4-yl)-2-(2,6-difluorophenyl)thiazole-4-carboxamide], for which the Ki under setting [1] was 4.35 nM.
On the same count and under the same terms, then `CO[C@H]1CO[C@H](c2c(NC(=O)c3nc(-c4cc(Cl)ccc4F)sc3N)cnn2C)CC[C@H]1N` [Example 281, 5-amino-N-(5-((2S,5R,6R)-5-amino-6-methoxyoxepan-2-yl)-1-methyl-1H-pyrazol-4-yl)-2-(5-chloro-2-fluorophenyl)thiazole-4-carboxamide], with 0.007 nM.
Same read-out and setting: then `C[C@@H]1C[C@H](N)CC[C@H](c2c(NC(=O)c3nc(-c4c(F)cccc4F)sc3N)cnn2C)O1` [Example 120, 5-amino-N-(5-((2R,5R,7R)-5-amino-7-methyloxepan-2-yl)-1-methyl-1H-pyrazol-4-yl)-2-(2,6-difluorophenyl)thiazole-4-carboxamide], with 0.081 nM.
For the compound `[2H]C([2H])([2H])O[C@@H]1CO[C@H](c2c(NC(=O)c3nc(-c4c(F)cccc4F)sc3N)cnn2C)CC[C@H]1N` [Example 174, 5-Amino-N-[5-[(2S,5R,6S)-5-amino-6-(trideuteriomethoxy)oxepan-2-yl]-1-methyl-pyrazol-4-yl]-2-(2,6-difluorophenyl)thiazole-4-carboxamide], the affinity, expressed as Ki, was 0.135 nM.
In the case of `Cn1ncc(NC(=O)c2nc(-c3c(F)cccc3F)sc2N)c1C1CC[C@@H](O)[C@@H](O)CO1` (stereo partly drawn) [Example 111, 5-amino-2-(2,6-difluorophenyl)-N-(5-((5R,6S)-5,6-dihydroxyoxepan-2-yl)-1-methyl-1H-pyrazol-4-yl)thiazole-4-carboxamide], under setting [1], the Ki was determined as 0.425 nM.
Still for that read-out and setting: the result for `Cn1ncc(NC(=O)c2csc(-c3c(F)cc4c(c3F)OCC4)n2)c1[C@@H]1CC[C@@H](N)[C@H](F)CO1` [Example 391, N-(5-((2S,5R,6S)-5-amino-6-fluorooxepan-2-yl)-1-methyl-1H-pyrazol-4-yl)-2-(5,7-difluoro-2,3-dihydrobenzofuran-6-yl)thiazole-4-carboxamide] reads 0.024 nM.
On the same count and under the same terms, the result for `Cn1ncc(NC(=O)c2csc(-c3c(F)cc(O[C@H]4CCOC4)cc3F)n2)c1[C@@H]1CC[C@@H](N)[C@H](F)CO1` [Example 218] reads 0.00224 nM; that for `Cn1ncc(NC(=O)c2nc(-c3c(F)cccc3F)sc2N)c1[C@H]1CC[C@H](N)C(F)(F)CO1` [Example 152], 0.031 nM.
The same measure, in the same setting: then `Cn1ncc(NC(=O)c2csc(-c3c(F)cc(C(C)(C)O)cc3F)n2)c1[C@@H]1CC[C@@H](N)[C@H](F)CO1` [Example 297, N-(5-((2S,5R,6S)-5-amino-6-fluorooxepan-2-yl)-1-methyl-1H-pyrazol-4-yl)-2-(2,6-difluoro-4-(2-hydroxypropan-2-yl)phenyl)thiazole-4-carboxamide], with 0.021 nM.
For the compound `[2H]C([2H])([2H])O[C@H]1CO[C@@H](c2c(NC(=O)c3nc(-c4c(F)cccc4F)sc3N)cnn2C)CC[C@@H]1N` [Example 180, 5-Amino-N-[5-[(2R,5S,6R)-5-amino-6-(trideuteriomethoxy)oxepan-2-yl]-1-methyl-pyrazol-4-yl]-2-(2,6-difluorophenyl)thiazole-4-carboxamide], affinity was put at a Ki of 0.017 nM.
Take `Cn1ncc(NC(=O)c2nc(-c3ccccc3F)sc2N)c1[C@@H]1CC[C@@H](N)[C@@H](F)CO1` [Example 186, 5-Amino-N-(5-((2S,5R,6R)-5-amino-6-fluorooxepan-2-yl)-1-methyl-1H-pyrazol-4-yl)-2-(2-fluorophenyl)thiazole-4-carboxamide]: the Ki under setting [1] is 0.007 nM.
Still for that read-out and setting: the result for `Cn1ncc(NC(=O)c2nc(-c3c(F)cccc3F)sc2N)c1[C@@H]1C[C@@H](N)[C@@H](F)CCO1` (stereo in doubt) [Example 170, 5-Amino-N-[5-[4-amino-5-fluoro-oxepan-2-yl]-1-methyl-pyrazol-4-yl]-2-(2,6-difluorophenyl)thiazole-4-carboxamide] reads 0.126 nM; that for `Cc1cc(F)c(-c2nc(C(=O)Nc3cnn(C)c3[C@@H]3CC[C@@H](N)[C@H](F)CO3)cs2)c(F)c1` [Example 312, N-(5-((2S,5R,6S)-5-amino-6-fluorooxepan-2-yl)-1-methyl-1H-pyrazol-4-yl)-2-(2,6-difluoro-4-methylphenyl)thiazole-4-carboxamide], 0.003 nM; that for `CCOc1ccc(F)c(-c2nc(C(=O)Nc3cnn(C)c3[C@@H]3CC[C@@H](N)[C@H](F)CO3)cs2)c1F` [Example 285, N-(5-((2S,5R,6S)-5-amino-6-fluorooxepan-2-yl)-1-methyl-1H-pyrazol-4-yl)-2-(3-ethoxy-2,6-difluorophenyl)thiazole-4-carboxamide], 0.001 nM.
Regarding `Cn1ncc(NC(=O)c2csc(-c3c(F)ccc(F)c3F)n2)c1[C@@H]1CC[C@@H](N)[C@@H](F)CO1` [Example 230, N-(5-((2S,5R,6R)-5-amino-6-fluorooxepan-2-yl)-1-methyl-1H-pyrazol-4-yl)-2-(2,3,6-trifluorophenyl)thiazole-4-carboxamide], the inhibition constant (Ki) under setting [1] worked out at 0.031 nM.
The same measure, in the same setting: then `Cc1cccc(F)c1-c1nc(C(=O)Nc2cnn(C)c2[C@@H]2CC[C@@H](N)[C@H](F)CO2)c(C)s1` [Example 369, N-[5-[(2S,5R,6S)-5-amino-6-fluoro-oxepan-2-yl]-1-methyl-pyrazol-4-yl]-2-(2-fluoro-6-methyl-phenyl)-5-methyl-thiazole-4-carboxamide], with 3.59 nM.
`COc1ncccc1-c1nc(C(=O)Nc2cnn(C)c2[C@@H]2CC[C@@H](N)[C@H](F)CO2)cs1` [Example 232, N-(5-((2S,5R,6S)-5-amino-6-fluorooxepan-2-yl)-1-methyl-1H-pyrazol-4-yl)-2-(2-methoxypyridin-3-yl)thiazole-4-carboxamide]: the Ki under setting [1] amounted to 1.11 nM.
The same measure, in the same setting: the result for `COc1ccc(-c2nc(C(=O)Nc3cnn(C)c3[C@@H]3CC[C@@H](N)[C@@H](F)CO3)cs2)c(F)c1` [Example 287, N-(5-((2S,5R,6R)-5-amino-6-fluorooxepan-2-yl)-1-methyl-1H-pyrazol-4-yl)-2-(2-fluoro-4-methoxyphenyl)thiazole-4-carboxamide] reads 0.053 nM.
